Assays:
[1] = tested on: H358 cells; experiment: Antiproliferative activity against H358 cells (Cell Titer Glow, ultra-low attachment plate); type: cell-based; conditions: Homo sapiens, NCI-H358, 72 h, 96-well ultra-low attachment plate, three days after addition of compound, Cell Titer Glow
Experimental: 2500 H358 cells were seeded in a 96-well ultra-low attachment plate (corning, 7007). After one day of growth, a serially diluted compound (a maximum concentration of 5 μM, 5-fold dilution, a total of five doses) was added. Three days after the addition of the compound, Cell Titer Glow (Promega, G9681) was added to evaluate pellet growth, and the IC50 value was calculated.

[2] = tested on: pERK level in H358 cells; experiment: pERK and ERK protein content assay in H358 cells (ELISA); type: cell-based; conditions: Homo sapiens, NCI-H358, compound 1 μM, 24 h, pERK/ERK ratio compared with DMSO group, read-out: Inhibition rate (%) of pERK level
Method in brief: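 H358 cells grown one day, then treated 24 h with compound at 1 μM. pERK and ERK in lysates measured by ELISA; pERK/ERK ratio expressed as percent inhibition versus DMSO.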

**Q.** Which IC50 [1] does the source give for `C=C(F)C(=O)N1CC2(CCN(c3nc(OC4CC5(C4)CN(CCOC)C5)nc4c(OCC(F)(F)F)c(-c5c(C)ccc6[nH]ncc56)c(C5CC5)cc34)CC2)C1` [Compound 126] here?
**A.** < 300 nM

**Q.** And the inhibition at 1 µM [2]?
**A.** > 90%

**Q.** How did the IC50 [1] turn out when `C=CC(=O)N1CC2(CCN(c3nc(OC4CC5(C4)CN(C4COC4)C5)nc4c(OCC(F)(F)F)c(-c5c(C)ccc6[nH]ncc56)c(C5CC5)cc34)CC2)C1` [Compound 127] was run?
**A.** < 300 nM

**Q.** And the inhibition at 1 µM [2]?
**A.** > 90%

**Q.** With `C=C(F)C(=O)N1CC2(CCN(c3nc(OC4CC5(C4)CN(C4COC4)C5)nc4c(OCC(F)(F)F)c(-c5c(C)ccc6[nH]ncc56)c(C5CC5)cc34)CC2)C1` [Compound 128] as the molecule, how does the IC50 [1] read?
**A.** < 300 nM

**Q.** And the inhibition at 1 µM [2]?
**A.** > 90%

**Q.** With `C=CC(=O)N1CC2(CCN(c3nc(OC4CC5(CCN(C)CC5)C4)nc4c(OCC(F)(F)F)c(-c5c(C)ccc6[nH]ncc56)c(C5CC5)cc34)CC2)C1` [Compound 129] as the molecule, how does the IC50 [1] read?
**A.** < 300 nM

**Q.** And the inhibition at 1 µM [2]?
**A.** > 90%

**Q.** What does the source list for `C=C(F)C(=O)N1CC2(CCN(c3nc(OC4CC5(CCN(C)CC5)C4)nc4c(OCC(F)(F)F)c(-c5c(C)ccc6[nH]ncc56)c(C5CC5)cc34)CC2)C1` [Compound 130]?
**A.** IC50 [1]: < 300 nM; inhibition at 1 µM [2]: > 90%

**Q.** Which IC50 [1] does the source give for `C=C(F)C(=O)N1CC2(CCN(c3nc(OC4CC5(CCN(CCOC)CC5)C4)nc4c(OCC(F)(F)F)c(-c5c(C)ccc6[nH]ncc56)c(C5CC5)cc34)CC2)C1` [Compound 132] here?
**A.** < 300 nM

**Q.** And the inhibition at 1 µM [2]?
**A.** > 90%

**Q.** Which IC50 [1] does the source give for `C=CC(=O)N1CC2(CCN(c3nc(OC4CC5(CCN(C6COC6)CC5)C4)nc4c(OCC(F)(F)F)c(-c5c(C)ccc6[nH]ncc56)c(C5CC5)cc34)CC2)C1` [Compound 133] here?
**A.** < 300 nM

**Q.** And the inhibition at 1 µM [2]?
**A.** > 90%

**Q.** For `C=C(F)C(=O)N1CC2(CCN(c3nc(OC4CC5(CCN(C(C)CC)CC5)C4)nc4c(OCC(F)(F)F)c(-c5c(C)ccc6[nH]ncc56)c(C5CC5)cc34)CC2)C1` (stereo not drawn) [Compound 134], which IC50 [1] is on record?
**A.** < 300 nM

**Q.** And the inhibition at 1 µM [2]?
**A.** > 90%

**Q.** Which results are given for `C=CC(=O)N1CC2(CCN(c3nc(OC4CCC5(CC4)CN(C)C5)nc4c(OCC(F)(F)F)c(-c5c(C)ccc6[nH]ncc56)c(C5CC5)cc34)CC2)C1` [Compound 135]?
**A.** IC50 [1]: 300 to 1000 nM; inhibition at 1 µM [2]: 50 to 90%

**Q.** Which IC50 [1] does the source give for `C=C(F)C(=O)N1CC2(CCN(c3nc(OC4CCC5(CC4)CN(C)C5)nc4c(OCC(F)(F)F)c(-c5c(C)ccc6[nH]ncc56)c(C5CC5)cc34)CC2)C1` [Compound 136] here?
**A.** 300 to 1000 nM

**Q.** And the inhibition at 1 µM [2]?
**A.** 50 to 90%

**Q.** What does the source list for `C=CC(=O)N1CC2(CCN(c3nc(OC4CCC5(CC4)CN(CCOC)C5)nc4c(OCC(F)(F)F)c(-c5c(C)ccc6[nH]ncc56)c(C5CC5)cc34)CC2)C1` [Compound 137]?
**A.** IC50 [1]: < 300 nM; inhibition at 1 µM [2]: > 90%

**Q.** How did the IC50 [1] turn out when `C=C(F)C(=O)N1CC2(CCN(c3nc(OC4CCC5(CC4)CN(CCOC)C5)nc4c(OCC(F)(F)F)c(-c5c(C)ccc6[nH]ncc56)c(C5CC5)cc34)CC2)C1` [Compound 138] was run?
**A.** < 300 nM

**Q.** And the inhibition at 1 µM [2]?
**A.** > 90%

**Q.** `C=C(F)C(=O)N1CC2(CCN(c3nc(N4CC(N(C)C)C4)nc4c(OCC(F)(F)F)c(-c5c(C)ccc6[nH]ncc56)c(C5CC5)cc34)CC2)C1` [Compound 139] was tested. Which IC50 [1] did it give?
**A.** < 300 nM

**Q.** And the inhibition at 1 µM [2]?
**A.** > 90%

**Q.** For `C=CC(=O)N1CC2(CCN(c3nc(N4CC(N(C)CCOC)C4)nc4c(OCC(F)(F)F)c(-c5c(C)ccc6[nH]ncc56)c(C5CC5)cc34)CC2)C1` [Compound 140], which IC50 [1] is on record?
**A.** < 300 nM

**Q.** What about the inhibition at 1 µM [2] of the same molecule?
**A.** > 90%

**Q.** How did the IC50 [1] turn out when `C=C(F)C(=O)N1CC2(CCN(c3nc(N4CC(N(C)CCOC)C4)nc4c(OCC(F)(F)F)c(-c5c(C)ccc6[nH]ncc56)c(C5CC5)cc34)CC2)C1` [Compound 141] was run?
**A.** < 300 nM

**Q.** And the inhibition at 1 µM [2]?
**A.** > 90%

**Q.** For `C=C(F)C(=O)N1CC2(CCN(c3nc(N4CC(N5CCC5)C4)nc4c(OCC(F)(F)F)c(-c5c(C)ccc6[nH]ncc56)c(C5CC5)cc34)CC2)C1` [Compound 143], which IC50 [1] is on record?
**A.** < 300 nM

**Q.** And the inhibition at 1 µM [2]?
**A.** > 90%

**Q.** How did the IC50 [1] turn out when `C=CC(=O)N1CC2(CCN(c3nc(N4CC(N5CC(OC)C5)C4)nc4c(OCC(F)(F)F)c(-c5c(C)ccc6[nH]ncc56)c(C5CC5)cc34)CC2)C1` [Compound 144] was run?
**A.** < 300 nM

**Q.** And the inhibition at 1 µM [2]?
**A.** > 90%

**Q.** What does the source list for `C=C(F)C(=O)N1CC2(CCN(c3nc(N4CC(N5CC(OC)C5)C4)nc4c(OCC(F)(F)F)c(-c5c(C)ccc6[nH]ncc56)c(C5CC5)cc34)CC2)C1` [Compound 145]?
**A.** IC50 [1]: < 300 nM; inhibition at 1 µM [2]: > 90%

**Q.** What does the source list for `C=CC(=O)N1CC2(CCN(c3nc(N4CC(N5CCOCC5)C4)nc4c(OCC(F)(F)F)c(-c5c(C)ccc6[nH]ncc56)c(C5CC5)cc34)CC2)C1` [Compound 146]?
**A.** IC50 [1]: < 300 nM; inhibition at 1 µM [2]: > 90%

**Q.** Which IC50 [1] does the source give for `C=C(F)C(=O)N1CC2(CCN(c3nc(N4CC(N5CCOCC5)C4)nc4c(OCC(F)(F)F)c(-c5c(C)ccc6[nH]ncc56)c(C5CC5)cc34)CC2)C1` [Compound 147] here?
**A.** < 300 nM

**Q.** And the inhibition at 1 µM [2]?
**A.** > 90%

**Q.** How did the IC50 [1] turn out when `C=CC(=O)N1CC2(CCN(c3nc(N4CCC(N5CCOCC5)CC4)nc4c(OCC(F)(F)F)c(-c5c(C)ccc6[nH]ncc56)c(C5CC5)cc34)CC2)C1` [Compound 148] was run?
**A.** 300 to 1000 nM

**Q.** And the inhibition at 1 µM [2]?
**A.** 50 to 90%

Source: patent publication US12479843B2, “Spiro ring-containing quinazoline compounds” (WIGEN BIOMEDICINE TECHNOLOGY (SHANGHAI) CO., LTD., priority 2019, dated 2025)
